{"source": "paper PMC9750872", "about": "“Ras-mutant cancers are sensitive to small molecule inhibition of V-type ATPases in mice” (Nature biotechnology, 2022)", "key": {"MEFs bearing BRAFV600E": {"system": "MEFs bearing BRAFV600E", "assay": "Macropinocytosis, TMR-dextran uptake", "format": "cell-based", "settings": "Mus musculus; 2 μM 249C 18 h, DMSO = 100%; read-out: inhibition of MP", "method": "(§1) Macropinosome visualization was essentially done as previously described. Cells were plated in black, clear bottom CellCarrier-96 Ultra Microplates (PerkinElmer 6055302) and serum-starved for 24 h. The next day, they were treated with 2 μM 249C (1255) for 18 h followed by addition of 70 kDa TMR-Dextran (Invitrogen D1818) and Hoescht for 2 hours at 37 °C prior to 3 × cold PBS washes and fixation in 4% paraformaldehyde for 30 min. Following 3 × cold PBS washes, mounting medium (Vector Laboratories Inc.) was added and images were captured using an Operetta CLS™ fluorescent microscope for High-Content Analysis (PerkinElmer). Image analysis and quantification was performed with a spot segmentation algorithm using the Perkin Elmer Harmony® PhenoLOGIC™ 3.2 software. Briefly, the images were segmented and individual nuclei (DAPI stained) and cell bodies (by digital phase contrast imaging) were identified. The TMR signal was used for the spot segmentation analysis block. […] Data are presented as spots - number of objects per nucleus. For each cell line, 5 DMSO control and 5 249C-treated wells were imaged and a minimum of 3 images were captured per well. Data representing three independent experiments are presented."}, "MEFs bearing KRASG12V": {"system": "MEFs bearing KRASG12V", "assay": "Macropinocytosis, TMR-dextran uptake", "format": "cell-based", "settings": "Mus musculus; 2 μM 249C 18 h, DMSO = 100%; read-out: inhibition of MP", "method": "as §1"}, "MEFs bearing KRASG13D": {"system": "MEFs bearing KRASG13D", "assay": "Macropinocytosis, TMR-dextran uptake", "format": "cell-based", "settings": "Mus musculus; 2 μM 249C 18 h, DMSO = 100%; read-out: inhibition of MP", "method": "as §1"}, "468 human kinases": {"system": "468 human kinases", "assay": "KINOMEscan profiling", "format": "binding", "settings": "249C at 10,000 nM", "source_text": "The KINOMEscan™ Profiling Service consisting of 468 human kinases was used to assess 249C inhibitor activity to check for off-target effects as previously described.\nSupplementary Fi g u re 12: Compound 249C assessed for off-target effects using the KIN OME scanTM screening platform. (A) Selectivity (S-score) for 249C wher e the sco re is a qu antitative measu re o f compound selectivity against human kinases. It is calculate b y dividing the number of k inases that compounds bi nd to b y the total number of distinct kinases tested, excluding mutant variants (S = number of hits / number of assa ys). 1 hit out of >400 kinases is reported for test compound (249C) = 0.002. S(35) = number of non- mutant kinases with % ctrl <35/number of non- mutant kinases; (B) Kinome interaction map for 249C at 10,000 nM. Each red dot indicates a kinase found to bind, where larger dots indicate higher affinit y interactions.\n1 Tyrosine Kinase (TK) out of >400 kinases ( created in TREEspotTM ) with low affinity. This is calculated using\nDissociation constants (Kds) were determined using 249C at 30,000 nM, Hill slopes were set to - 1 and curves were fitted using a non- linear least square fit with the […]\n(1 picture or pasted object on this page, not shown here)"}, "[1]": {"molecular_target": "T1, entire mammalian V-ATPase complex (Sus scrofa, UniProt Q9TVC1)", "T1 construct": "the entire V-ATPase complex (800 kDa) was purified as described previously from porcine kidneys; from tissue; host or cells: porcine kidney", "T1 sequence (Q9TVC1 whole entry)": "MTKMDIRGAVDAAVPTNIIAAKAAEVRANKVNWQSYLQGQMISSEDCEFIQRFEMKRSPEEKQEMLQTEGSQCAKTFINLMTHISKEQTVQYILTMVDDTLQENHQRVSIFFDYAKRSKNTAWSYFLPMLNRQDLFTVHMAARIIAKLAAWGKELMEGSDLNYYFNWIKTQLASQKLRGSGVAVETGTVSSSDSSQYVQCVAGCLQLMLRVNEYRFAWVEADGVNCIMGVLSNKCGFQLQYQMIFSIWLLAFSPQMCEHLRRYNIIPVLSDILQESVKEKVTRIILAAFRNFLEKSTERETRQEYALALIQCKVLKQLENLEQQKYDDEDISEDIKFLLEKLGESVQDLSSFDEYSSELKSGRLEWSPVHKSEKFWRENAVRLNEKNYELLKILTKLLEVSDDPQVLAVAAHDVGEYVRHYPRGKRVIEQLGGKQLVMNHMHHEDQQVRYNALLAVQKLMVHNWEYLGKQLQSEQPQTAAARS", "T1 sequence (Q29048 whole entry partner)": "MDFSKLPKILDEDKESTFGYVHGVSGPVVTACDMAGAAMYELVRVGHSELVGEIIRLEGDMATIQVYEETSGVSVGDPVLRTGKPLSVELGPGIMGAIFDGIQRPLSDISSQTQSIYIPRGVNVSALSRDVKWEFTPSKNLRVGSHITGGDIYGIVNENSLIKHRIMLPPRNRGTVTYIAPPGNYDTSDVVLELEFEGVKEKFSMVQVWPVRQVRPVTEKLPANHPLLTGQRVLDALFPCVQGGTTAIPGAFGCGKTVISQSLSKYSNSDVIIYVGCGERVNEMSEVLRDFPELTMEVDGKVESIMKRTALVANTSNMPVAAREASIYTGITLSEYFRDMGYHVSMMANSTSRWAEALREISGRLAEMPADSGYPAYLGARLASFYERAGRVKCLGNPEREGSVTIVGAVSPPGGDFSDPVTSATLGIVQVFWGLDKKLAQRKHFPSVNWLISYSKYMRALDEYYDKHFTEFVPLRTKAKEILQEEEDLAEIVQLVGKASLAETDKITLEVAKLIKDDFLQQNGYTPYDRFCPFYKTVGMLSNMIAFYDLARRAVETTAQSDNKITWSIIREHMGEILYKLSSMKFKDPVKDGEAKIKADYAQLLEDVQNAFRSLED", "assay": "Bio-layer interferometry (BLI)", "format": "binding, porcine", "settings": "biotinylated-249C on streptavidin sensors", "source_text": "Figure 4. […] (A) Model of the reversible assembly of V-ATPase. Cytosolic V1 subunits are depicted in blue and membrane Vo subunits in purple. Upon V-ATPase assembly, ATP is hydrolyzed to ADP accompanied by proton (H^+) pumping and luminal acidification (decrease in pH) (Created with BioRender). […] The amount of subunit B2 present in the membrane fraction indicates the amount of assembled V-ATPase. A representative Western blot is presented. […] Cells were mechanically lysed, and a fraction containing FITC-Dextran-loaded lysosomes was isolated by sedimentation centrifugation. Fluorescence was measured over time to assess pH-dependent quenching following addition of 1 mM magnesium-ATP (predetermined). […] Representative of 5 individual experiments with n = 3 for each is presented (mean ± SD) (D) Mammalian V-ATPase activity measured in the absence and presence of 1 μM 249C and 1 μM BafA1. Data shown are mean ± SD; n = 3. Bio-layer inferometry (BLI) of (E) the entire mammalian V-ATPase complex (association protein concentrations: 30, 60, 120, 240 nM) and (F) the individual human H subunit (ATP6V1H) (association protein concentrations: 16,800 and 21,000 nM) against biotinylated-249C loaded onto streptavidin sensor tips. A reference sensor was subtracted from the signal to blank the system. The ForteBio Octet® Software on the BLI system was used to calculate Kd s. […]"}}, "note": "pKd: −log10 of the molar value."}
{"smiles": "CN1CCOC(CNC(=O)C2(C)C(c3ccc(Cl)o3)C(c3ccc(F)cc3F)=NN2c2ccc(F)cc2F)C1", "note": "(centres unmarked) [Compound 249C]", "values": [{"measurement": "inhibition at 2 µM", "setting": "MEFs bearing BRAFV600E", "result": 90, "unit": "%"}, {"measurement": "inhibition at 2 µM", "setting": "MEFs bearing KRASG12V", "result": 73, "unit": "%"}, {"measurement": "inhibition at 2 µM", "setting": "MEFs bearing KRASG13D", "result": 94, "unit": "%"}, {"measurement": "number of kinases found to bind out of >400 kinases", "setting": "468 human kinases", "result": 1}, {"measurement": "pKd", "setting": "[1]", "result": 7.64}]}
